target: T1, truncated form of human Choline kinase α1 that includes residues 75-457 (Homo sapiens, UniProt P35790); experiment: Kinase Assay, coupled (ATP regeneration) LDH/PK assay, NADH absorbance; format: biochemical; settings: not given
T1 construct: made in house
Description: Absorbance of NADH (340 nm) was measured over 30 min using a SpectraMax M5 (Molecular Devices). Initial reaction velocity (ΔA340/Δt) was calculated and plotted as a function of inhibitor concentration in a 2-fold dilution series. IC50 values were obtained by fitting the relative velocities to a dose-response model.

T1 sequence (P35790 75-457): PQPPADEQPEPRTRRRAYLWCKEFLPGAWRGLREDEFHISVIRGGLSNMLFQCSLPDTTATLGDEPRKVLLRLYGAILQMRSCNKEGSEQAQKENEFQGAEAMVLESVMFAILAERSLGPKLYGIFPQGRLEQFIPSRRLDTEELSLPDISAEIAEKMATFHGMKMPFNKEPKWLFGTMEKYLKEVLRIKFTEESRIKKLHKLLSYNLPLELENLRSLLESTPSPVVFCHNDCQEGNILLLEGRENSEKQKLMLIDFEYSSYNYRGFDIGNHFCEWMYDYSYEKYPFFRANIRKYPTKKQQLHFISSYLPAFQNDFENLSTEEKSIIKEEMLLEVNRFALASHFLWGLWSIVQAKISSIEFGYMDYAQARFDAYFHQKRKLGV

`CN1CCCN(Cc2ccc(-c3ccc(C(=O)N4CCCC4)cc3)c(C#N)c2)CC1` [Example 26, 4-((4-methyl-1,4-diazepan-1-yl)methyl)-4′-(pyrrolidine-1-carbonyl)-[1,1′-biphenyl]-2-carbonitrile] and `CN1CCCN(Cc2ccc(-c3ccc(C(=O)N4CCCCC4)cc3)c(C#N)c2)CC1` [Example 34, 4-((4-methyl-1,4-diazepan-1-yl)methyl)-4′-(piperidine-1-carbonyl)-[1,1′-biphenyl]-2-carbonitrile] cannot be ordered by IC50: under 2000 nM for the first, under 500 nM for the second.

`CN1CCCN(Cc2ccc(-c3ccc(C(=O)N4CCC(=O)CC4)cc3)c(C#N)c2)CC1` [Example 31, 4-((4-methyl-1,4-diazepan-1-yl)methyl)-4′-(4-oxopiperidine-1-carbonyl)-[1,1′-biphenyl]-2-carbonitrile] and `CN1CCCN(Cc2ccc(-c3ccc(C(=O)N4CCOCC4)cc3)c(C#N)c2)CC1` [Example 36, 4-((4-methyl-1,4-diazepan-1-yl)methyl)-4′-(morpholine-4-carbonyl)-[1,1′-biphenyl]-2-carbonitrile] cannot be ordered by IC50: under 2000 nM for the first, under 2000 nM for the second.

In the case of `CN1CCCN(Cc2ccc(-c3ccc(CNP(C)(C)=O)cc3)c(C#N)c2)CC1` [Example 46, N-((2′-cyano-4′-((4-methyl-1,4-diazepan-1-yl)methyl)-[1,1′-biphenyl]-4-yl)methyl)-P,P-dimethylphosphinic amide], the IC50 is reported as under 500 nM.

same assay, conditions: Examples not designated with an asterisk; footnote prints version 1 of the Kinase Assay; read-out: IC50

`COCCN1CCN(Cc2ccc(-c3ccc(CN4CCCN(C)CC4)cc3C#N)cc2)CC1` [Example 3, 4′-((4-(2-methoxyethyl)piperazin-1-yl)methyl)-4-((4-methyl-1,4-diazepan-1-yl)methyl)-[1,1′-biphenyl]-2-carbonitrile] and `COCCN1CCN(C(=O)c2ccc(-c3ccc(CN4CCCN(C)CC4)cc3C#N)cc2)CC1` [Example 21, 4′-(4-(2-methoxyethyl)piperazine-1-carbonyl)-4-((4-methyl-1,4-diazepan-1-yl)methyl)-[1,1′-biphenyl]-2-carbonitrile] cannot be ordered by IC50: under 500 nM for the first, under 500 nM for the second.

`CN1CCCN(Cc2ccc(-c3ccc(CNCCNC(=O)OC(C)(C)C)cc3)c(C#N)c2)CC1` [Example 10, tert-butyl(2-(((2′-cyano-4′-((4-methyl-1,4-diazepan-1-yl)methyl)-[1,1′-biphenyl]-4-yl)methyl)amino)ethyl)carbamate] and `CNC(=O)NCc1ccc(-c2ccc(CN3CCCN(C)CC3)cc2C#N)cc1` [Example 47, 1-((2′-cyano-4′-((4-methyl-1,4-diazepan-1-yl)methyl)-[1,1′-biphenyl]-4-yl)methyl)-3-methylurea] cannot be ordered by IC50: under 500 nM for the first, under 500 nM for the second.

`CN(C)Cc1ccc(-c2ccc(CN3CCCN(C)CC3)cc2C#N)cc1` [Example 12, 4′-((dimethylamino)methyl)-4-((4-methyl-1,4-diazepan-1-yl)methyl)-[1,1′-biphenyl]-2-carbonitrile] and `CN1CCCN(Cc2ccc(-c3ccc(C(=O)N(C)C)cc3)c(C#N)c2)CC1` [Example 20, 2′-cyano-N,N-dimethyl-4′-((4-methyl-1,4-diazepan-1-yl)methyl)-[1,1′-biphenyl]-4-carboxamide] cannot be ordered by IC50: under 500 nM for the first, under 50000 nM for the second.

`CN1CCCN(Cc2ccc(-c3ccc(CN4CCCCC4)cc3)c(C#N)c2)CC1` [Example 13, 4-((4-methyl-1,4-diazepan-1-yl)methyl)-4′-(piperidin-1-ylmethyl)-[1,1′-biphenyl]-2-carbonitrile] and `Cc1cc(CN2CCCN(C)CC2)ccc1-c1ccc(CN2CCCN(C)CC2)cc1` [Example 49, 4,4′-((2-methyl-[1,1′-biphenyl]-4,4′-diyl)bis(methylene))bis(1-methyl-1,4-diazepane)] cannot be ordered by IC50: under 2000 nM for the first, under 500 nM for the second.

`CN1CCCN(Cc2ccc(-c3ccc(C(=O)N(C)CCO)cc3)c(C#N)c2)CC1` [Example 17, 2′-cyano-N-(2-hydroxyethyl)-N-methyl-4′-((4-methyl-1,4-diazepan-1-yl)methyl)-[1,1′-biphenyl]-4-carboxamide] and `CON(C)C(=O)c1ccc(-c2ccc(CN3CCCN(C)CC3)cc2C#N)cc1` [Example 35, 2′-cyano-N-methoxy-N-methyl-4′-((4-methyl-1,4-diazepan-1-yl)methyl)-[1,1′-biphenyl]-4-carboxamide] cannot be ordered by IC50: under 500 nM for the first, under 500 nM for the second.

`CN1CCCN(Cc2ccc(-c3ccc(C(=O)N4CCN(CCO)CC4)cc3)c(C#N)c2)CC1` [Example 18, 4′-(4-(2-hydroxyethyl)piperazine-1-carbonyl)-4-((4-methyl-1,4-diazepan-1-yl)methyl)-[1,1′-biphenyl]-2-carbonitrile] and `CN1CCCN(Cc2ccc(-c3ccc(C(=O)N4CCN(C)CC4)cc3)c(C#N)c2)CC1` [Example 24, 4-((4-methyl-1,4-diazepan-1-yl)methyl)-4′-(4-methylpiperazine-1-carbonyl)-[1,1′-biphenyl]-2-carbonitrile] cannot be ordered by IC50: under 500 nM for the first, under 500 nM for the second.

`CN1CCCN(Cc2ccc(-c3ccc(C(=O)N4CCC(O)CC4)cc3)c(C#N)c2)CC1` [Example 19, 4′-(4-hydroxypiperidine-1-carbonyl)-4-((4-methyl-1,4-diazepan-1-yl)methyl)-[1,1′-biphenyl]-2-carbonitrile] and `CN1CCCN(Cc2ccc(-c3ccc(C(=O)N4CCC(O)C4)cc3)c(C#N)c2)CC1` (centres unmarked) [Example 25, 4′-(3-hydroxypyrrolidine-1-carbonyl)-4-((4-methyl-1,4-diazepan-1-yl)methyl)-[1,1′-biphenyl]-2-carbonitrile] cannot be ordered by IC50: under 500 nM for the first, under 500 nM for the second.

`CN1CCCN(Cc2ccc(-c3ccc(C(=O)N4CCCC(O)C4)cc3)c(C#N)c2)CC1` (centres unmarked) [Example 23, 4′-(3-hydroxypiperidine-1-carbonyl)-4-((4-methyl-1,4-diazepan-1-yl)methyl)-[1,1′-biphenyl]-2-carbonitrile] and `CN1CCCN(Cc2ccc(-c3ccc(C(N)=O)cc3)c(C#N)c2)CC1` [Example 28, 2′-cyano-4′-((4-methyl-1,4-diazepan-1-yl)methyl)-[1,1′-biphenyl]-4-carboxamide] cannot be ordered by IC50: under 500 nM for the first, under 500 nM for the second.

`CC(=O)N1CCN(C(=O)c2ccc(-c3ccc(CN4CCCN(C)CC4)cc3)cc2)CC1` [Example 38, 1-(4-(4′-((4-methyl-1,4-diazepan-1-yl)methyl)-[1,1′-biphenyl]-4-carbonyl)piperazin-1-yl)ethanone] and `CN1CCCN(Cc2ccc(-c3ccc(C(=O)N4CCC(N5CCOCC5)CC4)cc3)cc2)CC1` [Example 39, (4′-((4-methyl-1,4-diazepan-1-yl)methyl)-[1,1′-biphenyl]-4-yl)(4-morpholinopiperidin-1-yl)methanone] cannot be ordered by IC50: under 50000 nM for the first, under 50000 nM for the second.

`CN1CCCN(Cc2ccc(-c3ccc(CN4CCCN(C)CC4)cc3CN)cc2)CC1` [Example 52, (4,4′-bis((4-methyl-1,4-diazepan-1-yl)methyl)-[1,1′-biphenyl]-2-yl)methanamine] and `CN1CCCN(Cc2ccc(-c3ccc(CN4CCCN(C)CC4)cc3CNC=O)cc2)CC1` [Example 53, N-((4,4′-bis((4-methyl-1,4-diazepan-1-yl)methyl)-[1,1′-biphenyl]-2-yl)methyl)formamide] cannot be ordered by IC50: under 500 nM for the first, under 500 nM for the second.

`Cc1cc(-c2ccc(CN3CCCN(C)CC3)cc2)ccc1CN1CCCN(C)CC1` [Example 54, 4,4′-((3-methyl-[1,1′-biphenyl]-4,4′-diyl)bis(methylene))bis(1-methyl-1,4-diazepane)] and `CN1CCCN(Cc2ccc(-c3ccc(C(=O)N4CCCN(C)CC4)cc3F)cc2)CC1` [Example 59, (2-fluoro-4′-((4-methyl-1,4-diazepan-1-yl)methyl)-[1,1′-biphenyl]-4-yl)(4-methyl-1,4-diazepan-1-yl)methanone] cannot be ordered by IC50: under 500 nM for the first, under 2000 nM for the second.

`CN1CCCN(Cc2ccc(-c3ccc(C(=O)N4CCCN(C)CC4)cc3)c(F)c2)CC1` [Example 58, (2′-fluoro-4′-((4-methyl-1,4-diazepan-1-yl)methyl)-[1,1′-biphenyl]-4-yl)(4-methyl-1,4-diazepan-1-yl)methanone] and `Cc1cc(C(=O)N2CCCN(C)CC2)ccc1-c1ccc(CN2CCCN(C)CC2)cc1C#N` [Example 60, 2′-methyl-4-((4-methyl-1,4-diazepan-1-yl)methyl)-4′-(4-methyl-1,4-diazepane-1-carbonyl)-[1,1′-biphenyl]-2-carbonitrile] cannot be ordered by IC50: under 500 nM for the first, under 2000 nM for the second.

`CN1CCCN(Cc2ccc(-c3ccc(C(=O)N4CCCN(C)CC4)cc3Br)c(C#N)c2)CC1` [Example 61, 2′-bromo-4-((4-methyl-1,4-diazepan-1-yl)methyl)-4′-(4-methyl-1,4-diazepane-1-carbonyl)[1,1′-biphenyl]-2-carbonitrile] and `CN1CCCN(Cc2ccc(-c3ccc(C(=O)N4CCCN(C)CC4)cc3N(C)C)c(C#N)c2)CC1` [Example 62, 2′-(dimethylamino)-4-((4-methyl-1,4-diazepan-1-yl)methyl)-4′-(4-methyl-1,4-diazepane-1-carbonyl)-[1,1′-biphenyl]-2-carbonitrile] cannot be ordered by IC50: under 500 nM for the first, under 500 nM for the second.

`CN1CCCN(Cc2ccc(-c3ccc(C(=O)N4CCCN(C)CC4)cc3-c3ccccc3)c(C#N)c2)CC1` [Example 65, 4-((4-methyl-1,4-diazepan-1-yl)methyl)-4′-(4-methyl-1,4-diazepane-1-carbonyl)-[1,1′:2′,1″-terphenyl]-2-carbonitrile] and `Cc1ccc(-c2cc(C(=O)N3CCCN(C)CC3)ccc2-c2ccc(CN3CCCN(C)CC3)cc2C#N)cc1` [Example 70, 4″-methyl-4-((4-methyl-1,4-diazepan-1-yl)methyl)-4′-(4-methyl-1,4-diazepane-1-carbonyl)-[1,1′1:2′,1″-terphenyl]-2-carbonitrile] cannot be ordered by IC50: under 500 nM for the first, under 500 nM for the second.

`CN1CCCN(Cc2ccc(-c3ccc(C(=O)N4CCCN(C)CC4)cc3-c3ccc(CC#N)cc3)c(C#N)c2)CC1` [Example 67, 4″-(cyanomethyl)-4-((4-methyl-1,4-diazepan-1-yl)methyl)-4′-(4-methyl-1,4-diazepane-1-carbonyl)-[1,1′:2′,1″-terphenyl]-2-carbonitrile] and `CN1CCCN(Cc2ccc(-c3ccc(C(=O)N4CCCN(C)CC4)cc3-c3ccc(C#N)cc3)c(C#N)c2)CC1` [Example 68, 4-((4-methyl-1,4-diazepan-1-yl)methyl)-4′-(4-methyl-1,4-diazepane-1-carbonyl)-[1:1′:2′,1″-terphenyl]-2,4″-dicarbonitrile] cannot be ordered by IC50: under 500 nM for the first, under 500 nM for the second.

Reference: US9834521B2, “Choline kinase inhibitors” (ARIAD Pharmaceuticals, Inc., priority 2013, dated 2017)
